Publication PMC8344021, “Discovery of Small Molecule Bak Activator for Lung Cancer Therapy” (Theranostics, 2021)

Columns and labels:
[1] = system: MDA-MB-231, MCF7, HCT-116, Ramos, OPM-1, PANC-1 and U2OS cell lines; test: Apoptotic cell death in other types of cancer cell lines; type: cell-based, human; conditions: 1μM, 72h
Experimental: Figure S2. BKA-073 induces mitochondrial priming and apoptosis in various type of cancers. (A) Expression levels of Bak were analyzed by Western blot in various type of cancer cell lines. (B-C) Various type of cancer cell lines were treated with BKA -073 (1µM) for 16h or 72h, followed by analysis of dynamic BH3 profiling (B) or apoptotic cell death (C), respectively.
Data represent the mean ± SD, n = 3 per group. ***P < 0.001, by 2-tailed t test.
(1 picture or pasted object on this page, not shown here)
Supplemental Materials and Methods
Small molecule NSC14073 (BKA-073) was obtained from the Drug Synthesis and Chemistry Branch, Developmental Therapeutic Program, Division of Cancer Treatment and Diagnosis, National Cancer Institute (NCI, Bethesda, MD) (http://dtp.nci.nih.gov/RequestCompounds).
Venetoclax (ABT-199, 205807) was purchased from MedKoo Biosciences (Morrisville, NC). […]
Cells were seeded at a density of 5 × 103 per well in 96-well plates and allowed to grow overnight. After treatment with BKA-073, the surviving cell fraction was determined using the sulforhodamine B (SRB) assay as described. Optical density (OD) was measured at 510nm in a microplate reader (Synergy H1, BioTek®, Winooski, VT). […]
Apoptotic cells were detected using Annexin-V Apoptosis Detection Kit (556547, BD Biosciences, San Jose, CA) according to the manufacturer’s instructions. […]

A549 xenografts = test: A549 lung cancer xenografts, tumor growth; type: in vivo, Nu/Nu nude mice
Experimental: Six-week-old female Nu/Nu nude mice were purchased from Envigo (Indianapolis, IN) and housed under pathogen-free conditions in microisolator cages. The animal propagation protocol was approved by the Emory Institutional Animal Care and Use Committee (IACUC) and the Emory Animal Ethics Committee. 3×10^6 lung cancer cells were injected into subcutaneous tissue in the flank region of nude mice. The tumors were allowed to grow to an average volume of 150~200 mm^3 prior to initiation of therapy as previously described, [29]. Patient-derived xenografts (PDXs, TKO-002 and TKO-005) were established as part of an IRB-approved phase II co-clinical trial of arsenic trioxide in patients with relapsed SCLC who had failed standard platinum-based chemotherapy. Tumor samples were obtained by image-guided biopsy and were directly implanted into Nu/Nu nude mice without intervening propagation in plastic culture plates. Direct serial propagation of growing tumor occurred for up to 5 generations. The animal propagation protocol was approved by the Emory IACUC and the Emory Animal Ethics Committee. Mice with SCLC and NSCLC xenografts or PDXs were treated with BKA-073 intraperitoneally (i.p.) or venetoclax orally as indicated. During treatment, tumor volume (V) was measured by caliper measurements once every two days as described previously. Mice were euthanized by CO2 inhalation at the end of treatment. Harvested tumor tissues were used for further analysis.
To assess whether BKA-073 induced suppression of tumor growth occurs through activation of Bak and apoptosis in vivo, representative samples from harvested tumor tissues were analyzed by cross-linking with BMH for Bak oligomerization or by immunohistochemistry (IHC) for active caspase 3 as described, [29], [47]. […] There were no decreases in white cells (WBC), red blood cells (RBC) and platelets (PLT) in blood.

What does the source list for `COc1ccc2nc3ccccc3c(NCCNCC(C)O)c2c1` (stereo not drawn) [BKA-073]?
induction of apoptotic cell death [1]: potently induced; apoptosis (active caspase 3, IHC) in tumor tissues (A549 xenografts; 5, 10, 15mg/kg/d i.p., 28 days): Dose-dependent; tumor growth (A549 xenografts; 5, 10, 15mg/kg/d i.p., 28 days): potently suppressed lung cancer growth in a dose-dependent fashion; Bak oligomerization in tumor tissues (A549 xenografts; 5, 10, 15mg/kg/d i.p., 28 days, BMH cross-linking): Dose-dependent; tumor growth (A549 xenografts; A549-P xenografts, 15 mg/kg/d, 4 weeks): repressed xenografts; tumor growth (A549 xenografts; parental A549 xenografts, 12.5mg/kg/d i.p., 28 days): potently inhibited growth
